Several values for one entry are separate records, joined by “and”; a condition that tells them apart may be missing. Equal values may be shown once.
Key:
GLUT9 [1] = assay: GLUT9 protein expression in kidney of HUA mice (Western blot); assay type: in vivo; settings: allopurinol 10 mg/kg, p > 0.05
XOD [2] = settings: HUA cell model; allopurinol 100 μmol/L; vs model; p < 0.001
NLRP3 = NLRP3 protein expression in HK-2 cells (Western blot); settings: HK-2; 阳性 = allopurinol 100 µmol/L; replicates 1-3
XOD [3] = system: XOD
OAT3 [4] = assay: OAT3 protein expression in HK-2 cells (Western blot); settings: HK-2; 阳性 = allopurinol 100 µmol/L; replicates 1-3
Caspase-1 = Caspase-1 protein expression in HK-2 cells (Western blot); settings: HK-2; 阳性 = allopurinol 100 µmol/L; replicates 1-3
ASC = ASC protein expression in HK-2 cells (Western blot); settings: HK-2; 阳性 = allopurinol 100 µmol/L; replicates 1-3
OAT3 [5] = assay: OAT3 protein expression in kidney of HUA mice (Western blot); settings: allopurinol 10 mg/kg, p > 0.05
OAT1 [6] = assay: OAT1 protein expression in kidney of HUA mice (Western blot); settings: allopurinol 10 mg/kg, p > 0.05
GLUT9 [7] = assay: GLUT9 protein expression in HK-2 cells (Western blot); settings: HK-2; 阳性 = allopurinol 100 µmol/L; replicates 1-3
OAT1 [8] = assay: OAT1 protein expression in HK-2 cells (Western blot); settings: HK-2; 阳性 = allopurinol 100 µmol/L; replicates 1-3
[9] = Pharmacokinetics in rats (LC-MS/MS, WinNonlin); settings: for MRT inf: MRT(0-∞); for Cmax: C max; for Tmax: T max
Procedure: Whole blood was taken into heparinized tubes at predefined time points (2, 5, 10, 20, and 30 min, and 1, 2, 4, 6, 8, and 12 h) after administration, and plasma was separated by centrifugation and stored at −20°C until testing. […] Whole blood was taken into heparinized tubes at predefined time points (2, 5, 10, 20, and 30 min, and 1, 2, 4, 6, 8, and 12 h) after administration, and plasma was separated by centrifugation and stored at −20°C until testing. […] Pharmacokinetic parameters were calculated by using the pharmacokinetics software WinNonlin 8.1.

[10] = Sprague-Dawley, rat, plasma, iv, 5 mg/kg, rats, allopurinol intravenous 5 mg/kg, Average
[11] = Sprague-Dawley, rat, plasma, iv, 5 mg/kg, rats, allopurinol intravenous 5 mg/kg, individual rats
[12] = Sprague-Dawley, rat, plasma, po, 50 mg/kg, rats, allopurinol gavage 50 mg/kg, Average
[13] = Sprague-Dawley, rat, plasma, po, 50 mg/kg, rats, allopurinol gavage 50 mg/kg, individual rats
[14] = rats, allopurinol gavage 50 mg/kg, individual rats, 50 mg/kg
[15] = rats, allopurinol intravenous 5 mg/kg, individual rats, 5 mg/kg

In the case of `Oc1ncnc2[nH]ncc12` [allopurinol], the “GLUT9 protein expression in kidney” value (GLUT9 [1]) is reported as “did not show significant effects”, the “XOD activity in AML12 cells” value (XOD [2]) is reported as “significantly downregulate” and the “NLRP3 protein expression, band value” (NLRP3) is reported as 163.939 and 177.621 and 186.105. The “xod protein expression, band value” (XOD [3]; AML12, 阳性 = allopurinol 100 µmol/L, replicates 1-3) was 155.965 and 209.523 and 140.271, the “XOD protein expression in AML12 cells” value (XOD [3]; HUA cell model, allopurinol 100 µmol/L, vs model group) was “significantly downregulate” and the “OAT3 protein expression, band value” (OAT3 [4]) was 160.43 and 183.946. For the same compound, the “CASPASE protein expression, band value” (Caspase-1) was 147.442 and 190.729 and 189.372, the “asc protein expression, band value” (ASC) was 163.648 and 185.065 and 186.261 and the “OAT3 protein expression in kidney” value (OAT3 [5]) was “did not show significant effects”. For the same compound, the “OAT1 protein expression in kidney” value (OAT1 [6]) was “did not show significant effects”, the “GLUT (GLUT9) protein expression, band value” (GLUT9 [7]) was 146.392 and 138.006 and 144.372 and the “OAT1 protein expression, band value” (OAT1 [8]) was 174.983 and 217.222 and 169.712. For the same compound, the AUC(0-t) ([9]; Sprague-Dawley, rat, plasma, iv, 5 mg/kg, AUC(0-t), rats, allopurinol intravenous 5 mg/kg, Average) was 179 ng·h/mL, the AUC(0-inf) [9, 10] was 209 ng·h/mL and the AUC(0-inf) [9, 11] was 170 ng·h/mL. The C0 ([9]; Sprague-Dawley, rat, plasma, iv, 5 mg/kg, C 0, rats, allopurinol intravenous 5 mg/kg, Average) was about 225 ng/mL, the C0 ([9]; Sprague-Dawley, rat, plasma, iv, 5 mg/kg, C 0, rats, allopurinol intravenous 5 mg/kg, individual rats) was 169 ng/mL and the MRT inf [9, 10] was 0.79 h. It also gave an MRT inf [9, 11] of 0.73 h, a bioavailability ([9]; Sprague-Dawley, rat, plasma, oral, F (absolute bioavailability), rats, allopurinol gavage 50 mg/kg vs intravenous 5 mg/kg) of about 314% and an AUC(0-t) ([9]; Sprague-Dawley, rat, plasma, po, 50 mg/kg, AUC(0-t), rats, allopurinol gavage 50 mg/kg, Average) of 6470 ng·h/mL. It also gave an AUC(0-t) ([9]; Sprague-Dawley, rat, plasma, po, 50 mg/kg, AUC(0-t), rats, allopurinol gavage 50 mg/kg, individual rats) of 6290 ng·h/mL, an AUC(0-inf) [9, 12] of about 6580 ng·h/mL and an AUC(0-inf) [9, 13] of 6430 ng·h/mL. It also gave a Cmax [9, 12] of about 1350 ng/mL, a Cmax [9, 13] of 1310 ng/mL and an MRT inf [9, 12] of 2.5 h. The MRT inf [9, 13] was 2.06 h, the Tmax [9, 12] was 1 to 2 h and the Tmax [9, 13] was 2 h. The V/F ([9]; rats, allopurinol gavage 50 mg/kg, Average) was 14.28 L/kg, the T max ([9]; rats, allopurinol gavage 50 mg/kg, Average, 50 mg/kg) was 1.33 h and the “AUC(0-t)” value [9, 14] was 6,239.00 h·µg/L and 6,870.26 h·µg/L. The “AUC(0-∞)” value [9, 14] was 6,374.71 h·µg/L and 6,922.57 h·µg/L, the C max [9, 14] was 1,440.00 µg/L and 1,310.00 µg/L and the “MRT(0-∞)” value [9, 14] was 2.68 h and 2.75 h. The V/F [9, 14] was 15.75 L/kg and 15.77 L/kg and 11.31 L/kg, the V ([9]; rats, allopurinol intravenous 5 mg/kg, Average) was 19.62 L/kg and the “AUC(0-t)” value [9, 15] was 186.21 ng·h/mL and 225.15 ng·h/mL. The “AUC(0-∞)” value [9, 15] was 207.21 µg·h/L and 250.23 µg·h/L, the “C0” value [9, 15] was 223.22 ng/mL and 281.70 ng/mL and the “MRT(0-∞)” value [9, 15] was 0.81 h and 0.83 h. The V [9, 15] was 20.68 L/kg and 20.60 L/kg and 17.58 L/kg.

— paper PMC12339328, “Therapeutic effect and mechanism of gigantol on hyperuricemia” (Frontiers in Endocrinology, 2025)
